Earlier results in US20250270235A1, “COMPLEX OF GADOLINIUM AND A CHELATING LIGAND DERIVED OF A DIASTEREOISOMERICALLY ENRICHED PCTA AND SYNTHESIS METHOD” (GUERBET, priority 2019, published 2025).

Legend:
[1] = comparative, same conditions (pH 1.2, 37° C.); cited from earlier work
[2] = as described in WO 2014/174120; comparative; cited from earlier work

Row | Compound | kinetic inertia [1] | kinetic inertia (dissociation, in words) [1] | other results
1 | O=C([O-])CN1CCN(CC(=O)[O-])CCN([C@H](CO)[C@H](O)CO)CCN(CC(=O)[O-])CC1.[Gd+3] (racemic) [gadobutrol] | 18 h |  | 
2 | O=C([O-])CN1CCN(CC(=O)[O-])CCN(CC(=O)O)CCN(CC(=O)[O-])CC1.[Gd+3] [DOTA-Gd, gadolinium complex of 1,4,7,10-tetraazacyclododecane-N,N′,N″,N′″-tetraacetic acid] |  |  | log (Ktherm), stability constant [2]: 25.6
3 | CNC(=O)CN(CCN(CCN(CC(=O)[O-])CC(=O)NC)CC(=O)[O-])CC(=O)[O-].[Gd+3] [gadodiamide] |  | dissociate instantaneously | 
4 | O=C([O-])CN(CCN(CC(=O)[O-])CC(=O)[O-])CCN(CC(=O)[O-])CC(=O)[O-].[Gd+3] [gadopentetate] |  | dissociate instantaneously | 
5 | CNC[C@H](O)[C@@H](O)[C@H](O)[C@H](O)CO.O=C([O-])CN1CCN(CC(=O)[O-])CCN(CC(=O)O)CCN(CC(=O)[O-])CC1.[Gd+3] [gadoterate] | 96 h |  | 
